ChEMBL document CHEMBL1201862, “PubChem BioAssay data set” (2004)
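How tested: cells in 96-well plates exposed to compound for 48 hours at five concentrations. Here, GI50 denotes the concentration required for 50% inhibition of growth.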 Activity calls are given as the source filed them. Rule as the data show it: active = GI50 up to about 1.1 µM and inactive = higher.

Columns and labels:
Test in all cases: NCI-60 cell line screen, 48 h
A549 = system: A549
DMS-273 = system: DMS-273
SK-MEL-2 = system: SK-MEL-2
UACC-257 = system: UACC-257
NCI-H460 = system: NCI-H460
K562 = system: K562
ACHN = system: ACHN
OVCAR-3 = system: OVCAR-3
RXF 393 = system: RXF 393
COLO 205 = system: COLO 205
HCT-116 = system: HCT-116
CCRF-CEM = system: CCRF-CEM
TK-10 = system: TK-10
HOP-18 = system: HOP-18
SNB-75 = system: SNB-75
SW-620 = system: SW-620
UACC-62 = system: UACC-62
KM12 = system: KM12
EKVX = system: EKVX
M14 = system: M14
DMS-114 = system: DMS-114
HT-29 = system: HT-29
IGROV-1 = system: IGROV-1
HL-60 = system: HL-60
HOP-62 = system: HOP-62
SN12C = system: SN12C
U-251 = system: U-251
SF-539 = system: SF-539
M19-MEL = system: M19-MEL
SK-MEL-28 = system: SK-MEL-28
SK-MEL-5 = system: SK-MEL-5
MOLT-4 = system: MOLT-4
OVCAR-8 = system: OVCAR-8
DLD-1 = system: DLD-1
LOX IMVI = system: LOX IMVI
NCI-H522 = system: NCI-H522
Malme-3M = system: Malme-3M
SF-295 = system: SF-295
NCI-H23 = system: NCI-H23
KM-20L2 = system: KM-20L2
RPMI-8226 = system: RPMI-8226
HCT-15 = system: HCT-15
SK-OV-3 = system: SK-OV-3
786-0 = system: 786-0

How did the GI50 (A549) turn out when `O=C(Nc1cc(Cl)ccc1Cl)c1cc2ccccc2oc1=O` was run?
The GI50 was > 100 µM (inactive).

What about the GI50 (DMS-273) of the same molecule?
The GI50 was 98.2 µM (inactive).

What about the GI50 (SK-MEL-2) of the same molecule?
Its GI50 is > 100 µM (inactive).

And the GI50 (UACC-257)?
Its GI50 is 97.3 µM (inactive).

And the GI50 (NCI-H460)?
Its GI50 is 53.2 µM (inactive).

What about the GI50 (K562) of the same molecule?
The GI50 was > 100 µM (inactive).

And the GI50 (ACHN)?
The GI50 was 39.3 µM (inactive).

What about the GI50 (OVCAR-3) of the same molecule?
Its GI50 is 77.6 µM (inactive).

What about the GI50 (RXF 393) of the same molecule?
The GI50 was 37.2 µM (inactive).

And the GI50 (COLO 205)?
Its GI50 is > 100 µM (inactive).

What about the GI50 (HCT-116) of the same molecule?
The GI50 was > 100 µM (inactive).

What about the GI50 (CCRF-CEM) of the same molecule?
Its GI50 is 46.8 µM (inactive).

And the GI50 (TK-10)?
The GI50 was > 100 µM (inactive).

And the GI50 (HOP-18)?
The GI50 was 20.9 µM (inactive).

What about the GI50 (SNB-75) of the same molecule?
Its GI50 is 15.7 µM (inactive).

What about the GI50 (SW-620) of the same molecule?
Its GI50 is > 100 µM (inactive).

What about the GI50 (UACC-62) of the same molecule?
Its GI50 is > 100 µM (inactive).

And the GI50 (KM12)?
The GI50 was > 100 µM (inactive).

And the GI50 (EKVX)?
Its GI50 is > 100 µM (inactive).

What about the GI50 (M14) of the same molecule?
The GI50 was > 100 µM (inactive).

And the GI50 (DMS-114)?
Its GI50 is 78 µM (inactive).

And the GI50 (HT-29)?
The GI50 was > 100 µM (inactive).

What about the GI50 (IGROV-1) of the same molecule?
Its GI50 is > 100 µM (inactive).

What about the GI50 (HL-60) of the same molecule?
Its GI50 is > 100 µM (inactive).

What about the GI50 (HOP-62) of the same molecule?
The GI50 was 45.6 µM (inactive).

What about the GI50 (SN12C) of the same molecule?
The GI50 was 75.9 µM (inactive).

And the GI50 (U-251)?
Its GI50 is 59.3 µM (inactive).

What about the GI50 (SF-539) of the same molecule?
Its GI50 is > 100 µM (inactive).

What about the GI50 (M19-MEL) of the same molecule?
The GI50 was > 100 µM (inactive).

And the GI50 (SK-MEL-28)?
The GI50 was > 100 µM (inactive).

What about the GI50 (SK-MEL-5) of the same molecule?
The GI50 was > 100 µM (inactive).

What about the GI50 (MOLT-4) of the same molecule?
The GI50 was 94.8 µM (inactive).

What about the GI50 (OVCAR-8) of the same molecule?
The GI50 was 88.3 µM (inactive).

What about the GI50 (DLD-1) of the same molecule?
Its GI50 is > 100 µM (inactive).

And the GI50 (LOX IMVI)?
The GI50 was 61 µM (inactive).

What about the GI50 (NCI-H522) of the same molecule?
Its GI50 is > 100 µM (inactive).

What about the GI50 (Malme-3M) of the same molecule?
The GI50 was 18 µM (inactive).

What about the GI50 (SF-295) of the same molecule?
Its GI50 is 43.3 µM (inactive).

What about the GI50 (NCI-H23) of the same molecule?
Its GI50 is > 100 µM (inactive).

And the GI50 (KM-20L2)?
Its GI50 is > 100 µM (inactive).

And the GI50 (RPMI-8226)?
The GI50 was > 100 µM (inactive).

And the GI50 (HCT-15)?
The GI50 was over 100 µM.

And the GI50 (SK-OV-3)?
Its GI50 is 38.9 µM (inactive).

What about the GI50 (786-0) of the same molecule?
Its GI50 is 51.8 µM (inactive).
